Data taken from US20160017326A1, “MICRORNAS AS FUNCTIONAL MEDIATORS AND BIOMARKERS OF BONE METASTASIS” (THE TRUSTEES OF PRINCETON UNIVERSITY, priority 2013, published 2016).

Experiments:
Mmp14 3'UTR = assay: 3'UTR luciferase reporter assay, Mmp14; assay type: cell-based, mouse; conditions: co-transfection in HeLa
Description: (§1) For NFκB reporter assays the pGL4.32 [luc2P/NF-κB-RE/Hygro] vector (Promega) was co-transfected with a Renilla-luciferase plasmid into cells. After 24 hours, cells were treated with 50 ng/ml RANKL, 50 ng/ml sICAM1, or 10 ng/ml TNFα for analysis at indicated timepoints. Wildtype and mutant 3′UTRs were PCR amplified from mouse genomic DNA. The 3′UTRs were cloned into the pMIR-REPORT vector (AMBION®) downstream of firefly luciferase. Mutations in miRNA target sites were generated using the QuikChange Multi site-directed mutagenesis kit (Stratagene). 5×10^4 HeLa cells were plated in 24-well plates 24 hours prior to transfection. 200 ng of reporter plasmid was co-transfected with the renilla-luciferase control plasmid and 10 pM pre-miRNA precursor or precursor control (AMBION®) using Lipofectamine 2000 (Invitrogen). Cells were lysed 24 hours after transfection and assayed for luciferase activity using the Glomax 96 Luminometer (Promega). Primer sequences for cloning or mutagenesis are listed below:
(§2) Reporter constructs were co-transfected with pre-miRs, as well as a Renilla luciferase plasmid for normalization.

RAW264.7 cells = assay: RANKL-induced osteoclast differentiation, TRAP staining; assay type: cell-based, murine; conditions: all models tested
Excerpt: HeLa and RAW264.7 cells (American Type Culture Collection, ATCC) were maintained in Dulbecco's modified Eagle's medium (DMEM) supplemented with 10% fetal bovine serum (FBS), penicillin/streptomycin (GIBCO), and fungizone. MOCP-5 cells were maintained in αMEM with 10% FBS and antibiotics. MDA-MB-231 parental cells (ATCC) and all sublines (SCP2, SCP4, SCP6, SCP28, SCP46) were maintained in DMEM with 10% FBS and antibiotics. The murine 4T1 and 4T1.2 cells, and human TSU-Pr1, and TSU-PR1-B2 cells were similarly maintained in DMEM with 10% FBS and antibiotics. For osteoclast differentiation assays, cells were treated with indicated concentration of RANKL in DMEM plus 10% FBS, with media changes performed every 2 days. Primary osteoclasts were isolated from bone marrow cells flushed from the tibia of 6-week-old wild type Balb/c mice and filtered through a […] cell-strainer before overnight culture in aMEM with 10% FBS. The following day 1×10^6 non-adherent cells were plated in 6-well plates supplemented with 50 ng/mL M-CSF for 2 days, followed by 50 ng/mL RANKL for an additional 4-5 days, with media changes every 2 days. Human osteoclasts were obtained from Lonza (2T-110) and differentiated by treatment with 33 ng/ml M-CSF and 66 ng/ml RANKL. CM was collected from the indicated sub-confluent tumor cells grown in DMEM with […] for 24 hours. The CM was passed through a 0.2 μm filter before addition to 1×10^5 RAW264.7 or MOCP-5 cells in a 6-well plate. The media was replaced with fresh CM daily. Cells were TRAP stained on day 6 using a leukocyte acid phosphatase kit (Sigma) and TRAP^+-multineucliated cells were quantified as mature osteoclasts. […]

Calcr 3'UTR = assay: 3'UTR luciferase reporter assay, Calcr; assay type: cell-based, mouse; conditions: co-transfection in HeLa
Description: as §1, §2

Traf6 3'UTR = assay: 3'UTR luciferase reporter assay, Traf6; assay type: cell-based, mouse; conditions: co-transfection in HeLa
Description: as §1, §2

| Substance | luciferase reporter activity, Mmp14 3'UTR (Mmp14 3'UTR) | osteoclast maturation and activity (RAW264.7 cells) | luciferase reporter activity, Calcr 3'UTR (Calcr 3'UTR) | luciferase reporter activity, Traf6 3'UTR (Traf6 3'UTR) |
| --- | --- | --- | --- | --- |
| miR-133a: miRNA, SEQ ID NO: 61; delivered as pre-miRNA precursor; targets Mitf and Mmp14 (UUUGGUCCCCUUCAACCAGCUA; delivered as pre-miRNA precursor, chemistry not given here; listed as Homo sapiens) | repressed | strongly inhibit | – | – |
| miR-141: miRNA, SEQ ID NO: 69; delivered as pre-miRNA precursor; targets Mitf and Calcr (UAACACUGUCUGGUAACGAUGU; delivered as pre-miRNA precursor, chemistry not given here; listed as Homo sapiens) | – | strongly inhibit | repressed | – |
| miR-190: miRNA, SEQ ID NO: 64; delivered as pre-miRNA precursor; targets Calcr (UGAUAUGUUUGAUAUAUUAGGU; delivered as pre-miRNA precursor, chemistry not given here; listed as Homo sapiens) | – | Partial inhibition | able to repress | – |
| miR-219: miRNA, SEQ ID NO: 66; delivered as pre-miRNA precursor; targets Mitf and Traf6 (UGAUUGUCCAAACGCAAUUCU; delivered as pre-miRNA precursor, chemistry not given here; listed as Homo sapiens) | – | strongly inhibit | – | repressed |
